Columns and labels:
[1] = Chemical stability in 0.1 M K2PO4 at pH 7.4 assessed as parent compound remaining incubated for 24 hrs by LC-MS method; format: physicochemical; details: buffer, pH 7.4, 24 h
[2] = Chemical stability in 0.1 M sodium tetraborate (Na2B4O7, pH 10.0) assessed as parent compound remaining incubated for 24 hrs by LC-MS method; format: physicochemical; details: 0.1 M sodium tetraborate buffer, read-out: Stability
[3] = Stability in C57BL/6 mouse plasma assessed as half life at 10 uM by LC-MS method; format: ADME, cell-free, C57B/6
[4] = biological target: Casein kinase II subunit alpha (Homo sapiens) (UniProt P68400); experiment: Inhibition of human CK2a1 at 10 uM by ADP-Glo kinase assay
Sequence of Casein kinase II subunit alpha (Homo sapiens) (P68400 whole entry, looked up): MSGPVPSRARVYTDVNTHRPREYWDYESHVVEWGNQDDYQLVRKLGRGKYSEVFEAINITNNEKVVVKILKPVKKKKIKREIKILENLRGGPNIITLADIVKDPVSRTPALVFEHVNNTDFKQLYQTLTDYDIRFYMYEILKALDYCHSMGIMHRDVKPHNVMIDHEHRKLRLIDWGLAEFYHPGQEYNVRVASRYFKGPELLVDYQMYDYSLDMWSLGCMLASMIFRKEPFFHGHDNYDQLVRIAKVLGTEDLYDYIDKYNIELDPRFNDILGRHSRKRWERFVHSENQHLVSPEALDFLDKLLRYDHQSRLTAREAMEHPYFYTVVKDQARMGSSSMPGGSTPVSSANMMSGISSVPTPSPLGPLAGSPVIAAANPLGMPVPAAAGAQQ

[5] = Drug metabolism in 0.1 M sodium tetraborate (Na2B4O7, pH 10.0) assessed as fluoro-sulphonyl group hydrolysis incubated for 24 hrs by LC-MS method; format: physicochemical; details: pH 10, 24 h
[6] = biological target: RAC-alpha serine/threonine-protein kinase (Homo sapiens) (UniProt P31749); experiment: Inhibition of human AKT1 at 10 uM by ADP-Glo kinase assay
Sequence of RAC-alpha serine/threonine-protein kinase (Homo sapiens) (P31749 whole entry): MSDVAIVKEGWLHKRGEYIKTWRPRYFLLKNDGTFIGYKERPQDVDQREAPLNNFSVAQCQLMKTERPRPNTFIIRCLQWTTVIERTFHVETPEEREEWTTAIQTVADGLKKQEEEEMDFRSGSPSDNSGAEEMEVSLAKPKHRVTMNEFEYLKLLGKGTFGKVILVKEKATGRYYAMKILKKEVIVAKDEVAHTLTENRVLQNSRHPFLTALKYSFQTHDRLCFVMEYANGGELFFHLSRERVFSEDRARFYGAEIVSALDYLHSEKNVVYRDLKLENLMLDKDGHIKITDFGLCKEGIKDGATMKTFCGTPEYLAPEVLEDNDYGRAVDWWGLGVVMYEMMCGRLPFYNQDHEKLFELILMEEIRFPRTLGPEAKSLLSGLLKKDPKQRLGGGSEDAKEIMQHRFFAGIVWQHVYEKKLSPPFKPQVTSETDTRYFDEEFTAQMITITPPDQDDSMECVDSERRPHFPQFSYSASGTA

[7] = biological target: Interleukin-1 receptor-associated kinase 1 (Homo sapiens) (UniProt P51617); experiment: Inhibition of human IRAK at 10 uM by ADP-Glo kinase assay
Sequence of Interleukin-1 receptor-associated kinase 1 (Homo sapiens) (P51617 whole entry, looked up): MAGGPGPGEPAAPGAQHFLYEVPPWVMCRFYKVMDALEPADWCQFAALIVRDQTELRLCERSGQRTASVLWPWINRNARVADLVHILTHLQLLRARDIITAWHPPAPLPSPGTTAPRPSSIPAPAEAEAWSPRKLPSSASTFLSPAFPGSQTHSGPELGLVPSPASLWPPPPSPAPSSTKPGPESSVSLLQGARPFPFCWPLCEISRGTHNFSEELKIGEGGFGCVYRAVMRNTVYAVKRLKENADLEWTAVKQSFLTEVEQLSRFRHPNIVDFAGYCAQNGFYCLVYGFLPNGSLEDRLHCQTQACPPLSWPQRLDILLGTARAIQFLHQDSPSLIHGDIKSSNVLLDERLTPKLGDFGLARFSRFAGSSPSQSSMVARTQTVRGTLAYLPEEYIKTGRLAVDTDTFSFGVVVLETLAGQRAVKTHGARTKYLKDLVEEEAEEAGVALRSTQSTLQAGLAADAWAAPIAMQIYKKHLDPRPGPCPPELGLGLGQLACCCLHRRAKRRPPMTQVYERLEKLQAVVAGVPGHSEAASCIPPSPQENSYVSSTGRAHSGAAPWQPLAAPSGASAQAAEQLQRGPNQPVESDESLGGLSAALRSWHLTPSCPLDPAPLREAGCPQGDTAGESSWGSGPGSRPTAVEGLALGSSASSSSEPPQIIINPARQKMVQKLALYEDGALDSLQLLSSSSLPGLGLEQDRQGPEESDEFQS

[8] = Chemical stability in 0.1 N HCl at pH 1.2 assessed as parent compound remaining incubated for 24 hrs by LC-MS method; format: physicochemical; details: buffer, pH 1.2, 24 h
RAW264.7 = experiment: Cytotoxicity against mouse RAW264.7 cells assessed a reduction in cell viability incubated for 24 hrs in absence of 10% FBS by MTT assay; format: cell-based; details: raw264.7, 24 h
[9] = biological target: T1, Calmodulin-sensitive adenylate cyclase (Bacillus anthracis, UniProt P40136); experiment: Inactivation of Bacillus anthracis edema factor in presence of CaM incubated for 10 to 240 mins by EnzChek pyrophosphate assay
T1 sequence (P40136 whole entry): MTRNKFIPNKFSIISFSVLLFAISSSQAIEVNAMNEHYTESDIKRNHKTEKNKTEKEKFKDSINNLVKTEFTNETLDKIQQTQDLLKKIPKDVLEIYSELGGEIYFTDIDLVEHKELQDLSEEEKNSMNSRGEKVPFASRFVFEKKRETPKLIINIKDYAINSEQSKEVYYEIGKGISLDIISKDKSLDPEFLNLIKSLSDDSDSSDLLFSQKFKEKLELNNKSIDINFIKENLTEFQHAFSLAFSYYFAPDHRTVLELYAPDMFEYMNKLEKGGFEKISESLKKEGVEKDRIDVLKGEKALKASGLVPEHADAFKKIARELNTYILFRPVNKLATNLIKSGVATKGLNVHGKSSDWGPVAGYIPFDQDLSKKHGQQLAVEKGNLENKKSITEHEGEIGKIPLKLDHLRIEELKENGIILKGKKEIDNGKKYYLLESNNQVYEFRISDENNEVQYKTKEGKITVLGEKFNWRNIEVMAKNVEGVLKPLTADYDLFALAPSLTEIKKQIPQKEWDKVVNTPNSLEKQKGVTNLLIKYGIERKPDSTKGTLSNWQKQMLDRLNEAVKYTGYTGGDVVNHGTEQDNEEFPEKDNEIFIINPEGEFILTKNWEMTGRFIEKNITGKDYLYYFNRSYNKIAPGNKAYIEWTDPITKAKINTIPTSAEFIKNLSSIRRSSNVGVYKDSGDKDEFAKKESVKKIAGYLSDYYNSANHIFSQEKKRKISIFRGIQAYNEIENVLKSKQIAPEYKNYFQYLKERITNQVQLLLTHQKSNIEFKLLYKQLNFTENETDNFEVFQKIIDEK

[10] = biological target: Casein kinase I isoform alpha (Homo sapiens) (UniProt P48729); experiment: Inhibition of human CK1a1 at 10 uM by ADP-Glo kinase assay
Sequence of Casein kinase I isoform alpha (Homo sapiens) (P48729 2-337 limits assumed): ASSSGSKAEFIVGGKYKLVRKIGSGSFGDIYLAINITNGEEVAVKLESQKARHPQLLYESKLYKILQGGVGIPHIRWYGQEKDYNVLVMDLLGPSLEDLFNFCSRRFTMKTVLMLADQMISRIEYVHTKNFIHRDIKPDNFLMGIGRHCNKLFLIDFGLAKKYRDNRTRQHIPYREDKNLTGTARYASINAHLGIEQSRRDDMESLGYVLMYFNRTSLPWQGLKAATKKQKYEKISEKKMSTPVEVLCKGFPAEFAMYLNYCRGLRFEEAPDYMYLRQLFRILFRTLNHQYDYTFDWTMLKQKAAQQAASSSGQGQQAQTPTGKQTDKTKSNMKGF

[11] = biological target: T2, Aurora kinase A (Homo sapiens) (UniProt O14965); experiment: Inhibition of human Aurora A at 10 uM by ADP-Glo kinase assay
T2 sequence (whole entry): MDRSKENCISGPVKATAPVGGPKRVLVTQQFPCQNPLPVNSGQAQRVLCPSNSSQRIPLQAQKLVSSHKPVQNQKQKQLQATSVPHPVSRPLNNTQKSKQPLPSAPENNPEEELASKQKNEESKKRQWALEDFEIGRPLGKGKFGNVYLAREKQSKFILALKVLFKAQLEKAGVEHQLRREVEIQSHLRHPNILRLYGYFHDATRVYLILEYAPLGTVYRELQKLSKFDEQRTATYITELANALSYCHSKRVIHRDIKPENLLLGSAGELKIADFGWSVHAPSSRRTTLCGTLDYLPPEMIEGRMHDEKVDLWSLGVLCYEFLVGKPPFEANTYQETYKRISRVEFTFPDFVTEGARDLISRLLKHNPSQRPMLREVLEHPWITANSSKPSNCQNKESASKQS

[12] = biological target: Casein kinase I isoform gamma-1 (Homo sapiens) (UniProt Q9HCP0); experiment: Inhibition of human CK1g1 at 10 uM by ADP-Glo kinase assay
Sequence of Casein kinase I isoform gamma-1 (Homo sapiens) (Q9HCP0 whole entry, looked up, canonical isoform): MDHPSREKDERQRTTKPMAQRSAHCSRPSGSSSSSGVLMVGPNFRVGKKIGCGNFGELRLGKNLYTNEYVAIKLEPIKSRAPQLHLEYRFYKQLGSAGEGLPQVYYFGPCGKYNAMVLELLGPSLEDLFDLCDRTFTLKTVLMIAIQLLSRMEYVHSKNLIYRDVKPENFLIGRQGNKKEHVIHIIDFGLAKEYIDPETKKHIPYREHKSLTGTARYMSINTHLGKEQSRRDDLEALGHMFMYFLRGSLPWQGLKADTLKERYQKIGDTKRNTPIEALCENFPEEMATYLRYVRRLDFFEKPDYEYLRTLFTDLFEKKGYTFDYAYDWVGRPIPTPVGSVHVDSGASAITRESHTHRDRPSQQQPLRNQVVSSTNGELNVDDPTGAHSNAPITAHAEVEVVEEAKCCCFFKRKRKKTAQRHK

[13] = Stability in C57BL/6 mouse plasma assessed as assessed as parent compound remaining at 10 uM by LC-MS method; format: ADME, cell-free, C57B/6; details: read-out: Stability
[14] = biological target: Mitogen-activated protein kinase 14 (Homo sapiens) (UniProt Q16539); experiment: Inhibition of human p38alpha at 10 uM by ADP-Glo kinase assay
Sequence of Mitogen-activated protein kinase 14 (Homo sapiens) (Q16539 whole entry): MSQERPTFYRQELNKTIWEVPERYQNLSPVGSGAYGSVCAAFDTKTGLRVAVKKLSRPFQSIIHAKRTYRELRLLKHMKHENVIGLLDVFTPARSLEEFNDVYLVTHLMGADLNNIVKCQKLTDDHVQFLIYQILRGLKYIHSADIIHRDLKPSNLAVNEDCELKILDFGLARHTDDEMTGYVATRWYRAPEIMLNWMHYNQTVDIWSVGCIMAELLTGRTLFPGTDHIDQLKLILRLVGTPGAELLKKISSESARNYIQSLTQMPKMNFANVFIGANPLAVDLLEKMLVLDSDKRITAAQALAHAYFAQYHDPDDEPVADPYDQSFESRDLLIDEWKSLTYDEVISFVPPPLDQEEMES

[15] = Cytotoxicity against mouse RAW264.7 cells assessed a reduction in cell viability incubated for 24 hrs in presence of 10% FBS by MTT assay; format: cell-based; details: RAW264.7 cells
[16] = Chemical stability in simulated gastric intestinal fluid at pH 1.7 assessed as parent compound remaining incubated for 24 hrs by LC-MS method; format: ADME, physicochemical; details: simulated gi fluid, pH 1.7, 24 h

**Q.** What does the source list for `Nc1ncnc2c1ccn2C1CCN(C(=O)c2ccc(S(=O)(=O)F)cc2)CC1`?
**A.** Stability [1]: Stable; remaining at 24 h [2]: < 1%; half-life at 10 µM [3]: 37.2 min; inhibition [4]: 9%; Drug metabolism [5]: Metabolite_Notdetected; inhibition [6]: 20%; inhibition [7]: 10%; Stability [8]: Stable; Activity (RAW264.7): Non-Toxic; Ki [9]: 0.3 µM; inhibition [10]: 0%; inhibition [11]: 39%; inhibition [12]: 23%; remaining at 10 µM [13]: < 5%; inhibition [14]: 6%; CC50 at 24 h [15]: > 100 µM; Stability [16]: Stable

**Q.** For `Cc1nc(N)c2ccn(C3CCN(C(=O)c4ccc(S(=O)(=O)F)cc4)CC3)c2n1`, which inhibition [4] is on record?
**A.** Its inhibition is 16%.

**Q.** And the inhibition [6]?
**A.** The inhibition was 24%.

**Q.** And the inhibition [7]?
**A.** The inhibition was 0%.

**Q.** And the Activity (RAW264.7)?
**A.** Its Activity is “Non-Toxic”.

**Q.** What about the Ki [9] of the same molecule?
**A.** The Ki was 0.7 µM.

**Q.** And the inhibition [10]?
**A.** Its inhibition is 0%.

**Q.** And the inhibition [11]?
**A.** Its inhibition is 47%.

**Q.** What about the inhibition [12] of the same molecule?
**A.** Its inhibition is 16%.

**Q.** And the inhibition [14]?
**A.** Its inhibition is 2%.

**Q.** And the CC50 at 24 h [15]?
**A.** The CC50 at 24 h was over 100 µM.

— ChEMBL document CHEMBL4177722, “Small molecule inhibitors of anthrax edema factor” (Bioorg Med Chem Lett, 2018)
